Measurements from patent US20030064082A1, “Antipsychotic agents stimulate neurogenesis in brain” (priority 2001, published 2003).
“Also recorded” adds a separate entry of the source.

Legend:
[1] = test system: fibroblast growth factor-2; settings: in vivo; cited from earlier work
[2] = test system: subventricular zone (SVZ); test: BrdU uptake (newly divided cells) in the subventricular zone of rats after 21 days of drug in drinking water; type: in vivo, rat; settings: for BrdU positive (BrdU+) cells / mean cell counts in the subventricular zone versus vehicle control: rats, 21 days in drinking water, single BrdU injection at day 20
Method: Groups of age- and weight-matched (five rats per group) adult male Wistar rats were fed ad libitum for 21 day s with either Haloperidol, 0.4 mg/kg/day, Risperidone (Janssen Pharmaceutica Res Foundation, Piscataway, N.J.) 0.5 mg/kg/day, or Olanzapine (Ely Lilly and Co., Indianapolis, Ind.) 2 mg/kg/day. Control groups received vehicle only. All drugs were administered in drinking water. Water bottles were tightly sealed with leak-proof lids. Fluid intake was measured for each animal for every 3 days and fresh drug was replaced accordingly to maintain the daily dosage.
On the 20th day of treatment, bromodeoxyuridine (BrdU, Sigma Chemical, St. Louis, Mo.), dissolved in distilled water, was injected intraperitonally in a volume of 0.3 ml or less per rat to deliver a dosage of 50 mg/kg, for the labeling of newly divided cells. One day after the BrdU injection, rats were anesthetized under ketamine (100 mg/kg) and xylazine (0.6 mg/kg) anesthesia with saline cardiac perfusion. Brains were removed quickly, placed in a brain matrix, cut into 5-mm blocks, cryoprotected in O.C.T. (Tissue-Tek) compound and frozen in isopentane in liquid nitrogen. Samples were stored at −80° C. until immunostaining.
Coronal brain sections, 10 μm-thick, were cut in a cryotome. Every fifth section was processed for immunohistochemistry with anti-BrdU antibody (Sigma Chemical). Sections were fixed in 4% paraformaldehyde and denatured in 2 N HCl for 30 min. Following incubation with primary antibody, sections were developed with avidin-biotin reagents using a biotinylated donkey anti-mouse-IgG antibody (Vector Labs., Burlingame, Calif.) and diaminobenzidine (DAB). Separate investigators performed sectioning, immunostaining, and counting of BrdU-positive cells in a double-blinded manner. To ensure consistency, one investigator who was unaware of treatment and staining protocols was responsible for counting BrdU-positive cells for the entire study.
SVZ was identified as the cell layer ventral and lateral to the ependymal layer. […] Cells along the lateral aspect of the subependymal region including the dorsolateral angle of the ventricle on both left and right hemispheres, and ventral to the corpus callosum were counted. The few BrdU-positive cells present outside this area were not counted. Five sections from each animal were counted and the average total BrdU positive cells calculated. To validate the BrdU staining of newly divided cells, an antibody against proliferating cell nuclear antigen (PCNA), from Sigma Chemical, was also used.
In these experiments, the effects on neurogenesis of treatment of animals with the atypical neuroleptics, Risperidone and Olanzapine, was assessed. […] In the experiments shown in FIG. 1, rats were treated with a vehicle, a typical neuroleptic, or an atypical neuroleptic for 21 day s. A single injection of BrdU was given to each rat intraperitoneally at day 20. Sections from brains of each animal were prepared and frozen for subsequent analysis. For immunostaining, frozen sections from rat brain were incubated with a monoclonal mouse-anti BrdU antibody, and a biotinylated anti-mouse secondary antibody and developed with avidin-biotin reagent and DAB. Shown in FIG. 1 is the staining for: (A) a vehicle-treated control rat; (B) a Haloperidol-treated rat; (C) a Risperidone-treated rat; and (D) an Olanzapine-treated rat. The arrows show some of the BrdU+ cells. […]
For quantification, the number of BrdU positive cells was counted for each group. […]

[3] = test system: hippocampal dentate gyrus; test: Double immunofluorescent staining BrdU/NeuN in the hippocampal dentate gyrus; type: in vivo, rat; settings: 21 days, single BrdU injection at day 20
Method: Tissue sections from intestinal mucosa, where many new cells are generated, were used as positive controls. […] Omission of the primary, anti-BrdU antibody provided additional negative controls.
(§1) In these experiments, the effect of the atypical neuroleptics in the hippocampus was evaluated. In the experiments shown in FIG. 5, rats were treated with vehicle, a typical neuroleptic (Haloperidol) (data not shown), or an atypical neuroleptic (Risperidone or Olanzapine) for 21 day s. A single injection of BrdU was given to each rat intraperitoneally at day 20. Frozen sections from rat brain were incubated with a monoclonal mouse-anti BrdU antibody and a biotinylated anti-mouse secondary antibody and developed with avidin-biotin reagent and DAB.
The animal was treated with Olanzapine for 21 day s and a single injection of BrdU given intraperitoneally at day 20. Frozen sections were incubated with sheep-anti BrdU and mouse-anti NeuN antibodies. Secondary antibodies were a combination of Cy-3-conjugated anti-sheep antibody and Cy-2-conjugated anti-mouse antibody.

cognition = test: Cognitive performance of rats under long-term treatment; type: in vivo, rat; settings: up to 90 days of treatment
Method: Atypical Neuroleptics Improve Cognition In this experiment, the effects of atypical neuroleptics and typical neuroleptics on cognition was evaluated. Rats were treated with either vehicle (water), Haloperidol, or Risperidone.

[4] = test system: nerve growth factor (NGF)-receptor; settings: in vitro; cited from earlier work
superoxide dismutase = settings: in vitro; cited from earlier work
[5] = test system: subventricular zone (SVZ); test: Double immunofluorescent staining BrdU/NeuN and BrdU/GFAP in the subventricular zone, weekly BrdU injection; type: in vivo, rat; settings: 21 days, BrdU injected at day 7, 14 and 20
Text: A second study was undertaken in which 15 rats were divided in three treatment groups: Olanzapine-, haldol-, and vehicle-treated. In this study, BrdU injection was given once a week (starting on day 7) and one animal from each group was killed on days 14, 21, 28, 35, and 42. Tissue sections from this study were used in double immunofluorescent staining for either BrdU/NeuN or BrdU/glial fibrillary acidic protein (GFAP).
To evaluate whether the BrdU-positive cells expressed any neuronal or astrocytic markers, sections were subjected to double immunofluorescent staining, using sheep anti-BrdU serum (Biodesign) in combination with either a mouse anti-NeuN (as a neuronal marker, Chemicon, Tememcula, Calif.) or a rabbit anti-glial fibrillary acidic protein (an astrocytic marker, Dako, Carpinteria, Calif.), and the appropriate secondary antibodies that had been conjugated with cyanin dyes were used for visualization (Jackson Lab, Bar Harbor, Me.). […]
To evaluate whether the BrdU-positive cells express any cell type-specific marker, double immunofluoresence microscopy using either anti-NeuN or anti-GFAP antibody in combination with anti-BrdU antibody was performed. […] No BrdU+/GFAP+ cells were detected. Although the double-stained (BrdU+/NeuN+) cells were not quantified, there were clearly more BrdU+/NeuN+ in rats treated with the atypical neuroleptics than that in the untreated control rats.

[6] = test system: hippocampal dentate gyrus; test: BrdU+ cell count in the hippocampal dentate gyrus; type: in vivo, rat; settings: 21 days, single BrdU injection at day 20
Method: as §1

nerve growth factor = settings: in vitro; cited from earlier work

SMILES	fibroblast growth factor-2 (FGF-2) expression [1]	mean cell counts in the subventricular zone versus Olanzapine and Risperidone (Tukey multiple comparison) ([2]; 21 days, n=5)	BrdU positive (BrdU+) cells / mean cell counts in the subventricular zone versus vehicle control [2]	BrdU positive (BrdU+) cells / mean cell counts in the subventricular zone versus vehicle control ([2]; listed as Haldolperidol)	NeuN (or GFAP) expression of BrdU+ cells in the hippocampus [3]	cognitive performance as compared to the vehicle (cognition)	expression of nerve growth factor (NGF)-receptor [4]	expression of superoxide dismutase (superoxide dismutase)	BrdU+/GFAP+ cells in the SVZ [5]	BrdU+/NeuN+ cells in the SVZ [5]	average numbers of BrdU-positive cells in the hippocampal dentate gyrus versus control group [6]	statistical significance of the increase in neurogenesis in the hippocampus [6]	expression of nerve growth factor (nerve growth factor)
CN1CCN(C2=Nc3cc(Cl)ccc3Nc3ccccc32)CC1 [Clozapine, 8-chloro-11-(4-methyl-1-piperazinyl)-5H-dibenzo [b,e] [1,4] diazepine]	increases; also recorded: modulate	–	–	–	–	–	–	–	–	–	–	–	–
O=C(CCCN1CCC(O)(c2ccc(Cl)cc2)CC1)c1ccc(F)cc1 [Haloperidol]	–	significantly lower	No differences	not significantly different	did not express NeuN (or GFAP)	significantly impaired	–	–	–	–	–	–	–
Cc1cc2c(s1)Nc1ccccc1N=C2N1CCN(C)CC1 [Olanzapine, 2-methyl-4-(4-methyl-1-piperazinyl)-10H-thieno[2,3-b] [1,5]benzodiazepine]	–	–	significant increase; also recorded: significantly higher	–	3 BrdU+/NeuN− cells in the subgranular layer and a BrdU+/NeuN+ cell in the apical region of the granular cell layer	–	induces the expression	induces the expression	No BrU+/GFAP+ cells were detected; also recorded: essentially none	numerous; also recorded: increase	higher than the control group	not statistically significant	stimulate expression
Cc1nc2n(c(=O)c1CCN1CCC(c3noc4cc(F)ccc34)CC1)CCCC2 [Risperidone, 3-[2-[4-(6-fluoro-1,2-benzisoxazol-3-yl)-1-piperidinyl]ethyl]-6,7,8,9-tetrahydro-2-methyl-4H-pyrido[1,2-a]pyrimidin-4-one]	–	–	significant increase; also recorded: significantly higher	–	–	improved performance	–	–	–	–	higher than the control group	not statistically significant	–
